“And” between values parts separate entries of the source, which are not always exact repeats. Equal entries are not always repeated.
How the values were obtained:
[1] = test system: Mature S. mansoni, Puerto Rican/Michigan strain; test: Primary screen in mice, single oral doses, mature S. mansoni infection (Puerto Rican/Michigan strain); type: in vivo
Text: (§1) The compounds of the invention are useful in the treatment of schistosomiasis. Compounds of this invention, when placed in the primary screen in mice described in Am. J. Trop.
(§2) Effects of Single Oral Doses (Aqueous Solutions ) of 2-Chloro-
(§3) 4-(4-alkyl-1-piperazinyl)benzenemethanol, N^ω -oxides Against
(§4) Mature S. mansoni Infections in Mice

[2] = test system: Mature S. mansoni, Puerto Rican/Sterling Winthrop strain; test: Primary screen in mice, single oral doses, mature S. mansoni infection (Puerto Rican/Sterling Winthrop strain); type: in vivo
Text: as §1, §2, §3, §4

[3] = test system: Mature S. mansoni, Puerto Rican/Walter Reed strain; test: Primary screen in mice, single oral doses, mature S. mansoni infection (Puerto Rican/Walter Reed strain); type: in vivo
Text: as §1, §2, §3, §4

[4] = test system: Mature S. mansoni, St. Lucian strain; test: Primary screen in mice, single oral doses, mature S. mansoni infection (St. Lucian strain); type: in vivo
Text: as §1, §2, §3, §4

[5] = test system: Mature S. mansoni, Brazilian strain; test: Primary screen in mice, single oral doses, mature S. mansoni infection (Brazilian strain); type: in vivo
Text: as §1, §2, §3, §4

[6] = test system: Mature S. mansoni, Liberian strain; test: Primary screen in mice, single oral doses, mature S. mansoni infection (Liberian strain); type: in vivo
Text: as §1, §2, §3, §4

[7] = test system: Mature S. mansoni (Puerto Rican/Walter Reed Strain); test: Secondary test in monkeys, mature S. mansoni infection; type: in vivo; settings: monkeys (Cebus apella), 50 × 4 mg/kg
Text: The preferred compound of the invention, when placed in a secondary test in monkeys described in Am. J. Trop. Med. Hyg. 15, 705 (1966) gave the following data:
Effects of 2-chloro-4-(4-methyl-1-piperazinyl)benzenemethanol,
N^ω -oxide Against Mature S. mansoni (Puerto Rican/Walter Reed
Strain) Infections in Monkeys (Cebus apella)

[8] = Acute intramuscular toxicity (LD50) in uninfected mice; settings: mouse, in vivo, im, read-out: Approximate Acute Intramuscular LD50
Text: Approximate Acute Intramuscular LD50
Values in Uninfected Mice

[9] = test system: Salmonella typhimurium TA-100; type: cell-based
Text: The compounds of this invention have the specific advantage over the corresponding des-N-oxide compounds in that the compounds are non-mutagenic in a test designed to determine mutagenicity which is described in J. Pharm. Exp. Therap., 200, 1 (1977).
Mutagenic Activity Using Salmonella typhimurium (TA-98 and TA-100)

C[N+]1([O-])CCN(c2ccc(CO)c(Cl)c2)CC1 [CH3, 2-chloro-4-(4-methyl-1-piperazinyl)benzenemethanol, N^ω -oxide]
% Mice Cured ([1]; single oral dose 40 mg/kg): 43%
% Reduction Live Worms ([1]; single oral dose 40 mg/kg): 79%
% Mice Cured ([1]; single oral dose 75 mg/kg): 52%
% Reduction Live Worms ([1]; single oral dose 75 mg/kg): 90%
% Mice Cured ([1]; single oral dose 300 mg/kg): 87%
% Reduction Live Worms ([1]; single oral dose 300 mg/kg): 99%
% Mice Cured ([2]; single oral dose 40 mg/kg): 33%
% Reduction Live Worms ([2]; single oral dose 40 mg/kg): 56%
% Mice Cured ([2]; single oral dose 75 mg/kg): 60%
% Reduction Live Worms ([2]; single oral dose 75 mg/kg): 69%
% Mice Cured ([3]; single oral dose 100 mg/kg): 100%
% Reduction Live Worms ([3]; single oral dose 100 mg/kg): 100%
% Mice Cured ([4]; single oral dose 150 mg/kg): 0%
% Reduction Live Worms ([4]; single oral dose 150 mg/kg): 16%
% Mice Cured ([5]; single oral dose 20 mg/kg): 0%
% Reduction Live Worms ([5]; single oral dose 20 mg/kg): 73%
% Mice Cured ([5]; single oral dose 40 mg/kg): 51%
% Reduction Live Worms ([5]; single oral dose 40 mg/kg): 88%
% Mice Cured ([6]; single oral dose 50 mg/kg): 0%
% Reduction Live Worms ([6]; single oral dose 50 mg/kg): 25%
Final Egg Count [7]: 0
% Reduction Live Worms ([7]; N^ω -oxide, 4 mg/kg): 92% and 91%
LD50 [8]: 1500 mg/kg

CC[N+]1([O-])CCN(c2ccc(CO)c(Cl)c2)CC1 [C2 H5, 2-chloro-4-(4-ethyl-1-piperazinyl)benzenemethanol, N^ω -oxide]
% Mice Cured ([1]; single oral dose 75 mg/kg): 71%
% Reduction Live Worms ([1]; single oral dose 75 mg/kg): 92%
LD50 [8]: > 250 mg/kg

CC(C)[N+]1([O-])CCN(c2ccc(CO)c(Cl)c2)CC1 [CH(CH3)2, 2-chloro-4-[4-(1-methylethyl)-1-piperazinyl]-benzenemethanol, N^ω -oxide]
% Mice Cured ([1]; single oral dose 40 mg/kg): 19%
% Reduction Live Worms ([1]; single oral dose 40 mg/kg): 57%
% Mice Cured ([1]; single oral dose 75 mg/kg): 100%
% Reduction Live Worms ([1]; single oral dose 75 mg/kg): 100%
% Mice Cured ([1]; single oral dose 125 mg/kg): 57%
% Reduction Live Worms ([1]; single oral dose 125 mg/kg): 90%
% Mice Cured ([2]; single oral dose 75 mg/kg): 0%
% Reduction Live Worms ([2]; single oral dose 75 mg/kg): 25%
% Mice Cured ([3]; single oral dose 40 mg/kg): 75%
% Reduction Live Worms ([3]; single oral dose 40 mg/kg): 96%
% Mice Cured ([3]; single oral dose 75 mg/kg): 72%
% Reduction Live Worms ([3]; single oral dose 75 mg/kg): 85%
% Mice Cured ([4]; single oral dose 40 mg/kg): 0%
% Reduction Live Worms ([4]; single oral dose 40 mg/kg): 50%
% Mice Cured ([4]; single oral dose 75 mg/kg): 57%
% Reduction Live Worms ([4]; single oral dose 75 mg/kg): 75%
% Mice Cured ([5]; single oral dose 40 mg/kg): 0%
% Reduction Live Worms ([5]; single oral dose 40 mg/kg): 32%
% Mice Cured ([6]; single oral dose 75 mg/kg): 0%
% Reduction Live Worms ([6]; single oral dose 75 mg/kg): 42%
% Mice Cured ([6]; single oral dose 125 mg/kg): 100%
% Reduction Live Worms ([6]; single oral dose 125 mg/kg): 100%
Mutagenic activity, Revertants per n mole [9]: 0.007 Revertants per n mole
LD50 [8]: > 1500 mg/kg

CC(C)N1CCN(c2ccc(CO)c(Cl)c2)CC1 [CH(CH3)2 des N-oxide, 2-chloro-4-[4-(1-methylethyl)-1-piperazinyl]benzenemethanol, reference compound]
LD50 [8]: 100 mg/kg

CN1CCN(c2ccc(CO)c(Cl)c2)CC1 [CH3 des N-oxide, 2-chloro-4-(4-methyl-1-piperazinyl)benzenemethanol, reference compound]
Mutagenic activity, Revertants per n mole [9]: 0.1 Revertants per n mole
LD50 [8]: 200 mg/kg

CCN1CCN(c2ccc(CO)c(Cl)c2)CC1 [C2 H5 des N-oxide, 2-chloro-4-(4-ethyl-1-piperazinyl)benzenemethanol, reference compound]
LD50 [8]: 150 mg/kg

Reference: US4234583A, “2-Chloro-4-(4-lower alkyl-1-piperazinyl)benzenemethanol, N^ω -oxides and methods for their preparation” (priority 1978, dated 1980)
